Key:
Test in all cases: H2O2 reduction peroxidase assay
Type in all cases: biochemical
Settings in all cases: covalent; […] protein, […] H2O2, […] min preincubation, room temperature
[1] = biological target: T1, rhPRDX6 (Homo sapiens, UniProt P30041)
T1 sequence (P30041 2-224): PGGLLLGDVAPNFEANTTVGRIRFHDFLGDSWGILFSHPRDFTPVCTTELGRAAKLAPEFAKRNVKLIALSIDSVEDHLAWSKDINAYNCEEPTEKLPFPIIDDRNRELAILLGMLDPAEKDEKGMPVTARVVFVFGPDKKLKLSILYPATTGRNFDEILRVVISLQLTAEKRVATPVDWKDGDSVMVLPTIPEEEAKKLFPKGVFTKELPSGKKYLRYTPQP

[2] = biological target: T2, rhPRDX4 (Homo sapiens, UniProt Q13162)
T2 sequence (Q13162 38-271): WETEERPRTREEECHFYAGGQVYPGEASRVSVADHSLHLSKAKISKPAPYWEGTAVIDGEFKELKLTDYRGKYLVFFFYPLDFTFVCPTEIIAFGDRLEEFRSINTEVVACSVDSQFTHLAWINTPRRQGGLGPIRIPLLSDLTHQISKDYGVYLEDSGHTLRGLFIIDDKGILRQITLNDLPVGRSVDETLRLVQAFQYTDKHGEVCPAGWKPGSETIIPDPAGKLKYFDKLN

[3] = biological target: T3, rhPRDX2 (Homo sapiens, UniProt P32119)
T3 sequence (P32119 2-198): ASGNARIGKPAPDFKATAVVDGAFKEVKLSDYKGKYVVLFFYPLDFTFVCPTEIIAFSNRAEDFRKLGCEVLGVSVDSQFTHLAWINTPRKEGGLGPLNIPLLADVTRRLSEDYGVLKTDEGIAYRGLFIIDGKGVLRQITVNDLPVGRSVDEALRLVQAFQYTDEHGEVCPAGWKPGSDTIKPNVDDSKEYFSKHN

CC1=C(O)C(=O)C=C2C1=CC=C1[C@@]2(C)CC[C@@]2(C)[C@@H]3C[C@](C)(C(=O)O)CC[C@]3(C)CC[C@]12C [celastrol]
% inhibition at 5 μmol/L [1]: celastrol could significantly suppress the peroxidase activity of rhPRDXs for H2O2 reduction
% inhibition at 5 μmol/L [2]: celastrol could significantly suppress the peroxidase activity of rhPRDXs for H2O2 reduction
% inhibition at 5 μmol/L [3]: celastrol could significantly suppress the peroxidase activity of rhPRDXs for H2O2 reduction

From publication PMC9136576 (Acta Pharmaceutica Sinica. B, 2021)
